Laboratory results as given in PubChem BioAssay (NCI).
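Compound exposure: 48 hours, 5 concentrations, 96-well plates. TGI: total growth inhibition.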

Legend:
Experiment in all cases: NCI tumour cell line growth inhibition, 48 h
TK-10 renal = system: TK-10 renal
DMS 273 small cell lung = system: DMS 273 small cell lung
DMS 114 small cell lung = system: DMS 114 small cell lung
LOX IMVI melanoma = system: LOX IMVI melanoma
M19-MEL melanoma = system: M19-MEL melanoma
LXFL 529 NSCLC = system: LXFL 529 NSCLC
KM20L2 colon = system: KM20L2 colon
XF 498 CNS = system: XF 498 CNS
DLD-1 colon = system: DLD-1 colon
SNB-78 CNS = system: SNB-78 CNS
HS 578T breast = system: HS 578T breast
HOP-18 NSCLC = system: HOP-18 NSCLC

Row | Compound | TGI (TK-10 renal) [µM] | TGI (LOX IMVI melanoma) [µM] | TGI (HS 578T breast) [µM] | further results
1 | CC(/C=C/c1ncccc1OCCCCCC(=O)O)=N\NC1=NCCN1 | > 100 | > 100 | – | TGI (DMS 273 small cell lung): > 100 µM; TGI (DMS 114 small cell lung): > 100 µM; TGI (M19-MEL melanoma): > 100 µM; TGI (LXFL 529 NSCLC): > 100 µM; TGI (KM20L2 colon): > 100 µM; TGI (XF 498 CNS): > 100 µM; TGI (DLD-1 colon): > 100 µM
2 | CN(C)C(=S)Nc1nnc(NC23CC4CC(CC(C4)C2)C3)s1 | > 100 | 33.8 | – | TGI (DMS 273 small cell lung): 55.3 µM; TGI (DMS 114 small cell lung): 63.1 µM; TGI (SNB-78 CNS): > 100 µM; TGI (M19-MEL melanoma): 43.6 µM; TGI (KM20L2 colon): 24.8 µM
3 | C=C1C(=O)OC2/C=C(\C)CC/C=C(/C)CC(OC(=O)/C(=C/CO)CO)C12 (configuration not stated) | 34.5 | 81.5 | > 100 | –
4 | C1CNCCN2CCCNCCN(C1)CC2 | > 100 | > 100 | > 100 | –
5 | CS(C)(=O)=N/C=C\C(=O)C(Cl)(Cl)Cl | > 100 | > 100 | > 100 | –
6 | COc1ccc2c(c1)/C(=C(\C(Cl)=C(Cl)Cl)[N+](=O)[O-])N2 | > 100 | > 100 | > 100 | –
8 | CN1CN(c2ccccc2)C2(CCNCC2)C1=O | > 100 | > 100 | > 100 | –
9 | COc1cc2c(cc1C)NC(=O)/C2=C/c1c(Cl)[nH]c2cc(C)c(OC)cc12 | 18 | 15.7 | 46 | –
10 | CN(Cc1cnc2nc(N)nc(N)c2n1)c1ccc(C(=O)NC(CCS(=O)(=O)O)C(=O)O)cc1 (configuration not stated) | > 100 | > 100 | > 100 | –
11 | OC(c1cc(C(O)(C(F)(F)F)C(F)(F)F)ncn1)(C(F)(F)F)C(F)(F)F | > 10 | > 10 | > 10 | –
12 | O=C1CCc2c3c(c4c([nH]c5ccccc54)c2CC1)C(=O)NC3=O | 39.6 | 21 | > 100 | –
13 | NS(=O)(=O)c1ccc(NNC(=O)c2cccc3c(=O)c4ccccc4[nH]c23)cc1 | > 100 | 89 | > 100 | –
14 | CC(=O)OCC1C(C(C)OC(C)=O)CCC2C1CCC1(C)C(OC(C)=O)CCC21 (configuration not stated) | > 100 | 27.9 | – | –
15 | Nn1c(CNc2ccc(-c3nnc(Nc4ccc(Cl)cc4)n3N)cc2)nnc1Nc1ccc(Cl)cc1 | > 100 | – | – | –
16 | C/C(Cl)=N\OC(=O)Nc1ccc([N+](=O)[O-])cc1 | 27.8 | 9.93 | 72.5 | –
17 | c1ccc(Cc2cccc3cc(-c4ccc(-c5ccccc5)cc4)[nH]c23)cc1 | > 100 | > 100 | 84 | –
18 | Cc1c2c(c(C)c3c[n+](C)ccc13)Oc1ccccc1O2 | > 100 | > 71.1 | 12.9 | –
19 | CCCCC1Cc2cc(O)ccc2-c2n1c1cc(O)ccc1[n+]2C (configuration not stated) (tested in a mixture with another compound) | > 100 | > 100 | > 51.4 | –
20 | COc1ccc(-c2cc(-c3ccccc3)n(C3OC(COC(C)=O)C(OC(C)=O)C(OC(C)=O)C3OC(C)=O)c(=S)c2C#N)cc1 (configuration not stated) | 40.7 | > 100 | 23.5 | –

Row | Compound | TGI (TK-10 renal) [µM] | TGI (LOX IMVI melanoma) [µM] | TGI (HS 578T breast) [µM] | further results
21 | CCOC(=O)c1ccc(N=C2SC(=S)N(c3ccc(F)cc3)C2=Nc2ccc(C(=O)OCC)cc2)cc1 | 36.6 | 17.9 | 91.7 | –
22 | C=CCN1CCC(OC(=O)C(O)(/C=C\CC)C2CCCC2)CC1 (configuration not stated) | > 100 | > 100 | > 100 | –
23 | CCN(CC)CC(O)c1ccc2ccc3ccccc3c2c1 (configuration not stated) | 29.9 | 35.5 | 41.9 | –
24 | CCN(CC)CCn1ncc2ccc3c(c(=O)c4cccnc4n3CCN(CC)CC)c21 | > 10 | > 6.79 | > 6 | –
25 | CCOC(=O)C(Cc1ccc2c(c1)CCC2)(Cc1ccc2c(c1)CCC2)C(=O)OCC | > 100 | > 100 | > 100 | –
26 | O=C(CSc1nc2ccc(I)cc2c(=O)n1Cc1ccccc1)N/N=C/c1ccccc1 | 36.1 | > 100 | 9.09 | –
27 | NNC(N)=Nc1cccc2ccccc12 | > 100 | – | > 100 | –
28 | Cc1csc2c(P(=O)(OC(C)C)OC(C)C)c(-c3ccccc3)cn12 | 23.7 | 27.3 | 39.7 | –
29 | NS(=O)(=O)c1nnc(NC(=O)CCC(=O)O)s1 | > 100 | > 100 | > 100 | –
30 | O=C1C=C2S[C@H]3C[C@]2(C=C1Br)c1c(c(O)c2c4c1=NCCC=4C=N2)N3 | 2.71 | 1.27 | 3.48 | TGI (DMS 273 small cell lung): 2.39 µM; TGI (DMS 114 small cell lung): 0.404 µM; TGI (HOP-18 NSCLC): 3.23 µM; TGI (SNB-78 CNS): 3.79 µM; TGI (LXFL 529 NSCLC): 0.395 µM; TGI (KM20L2 colon): 1.93 µM; TGI (XF 498 CNS): 2.78 µM; TGI (DLD-1 colon): 2.06 µM
31 | Cc1ccnc(NS(=O)(=O)c2ccc(NC(=O)c3ccc4nc5ccccc5c(Nc5ccc(S(=O)(=O)Nc6nccc(C)n6)cc5)c4c3)cc2)n1 | > 100 | > 100 | > 100 | –
32 | COc1cc(Cn2c3c(c4c(CN(C)C)c(O)ccc42)C(=O)c2ccccc2C3=O)cc(OC)c1 | 74.2 | 40.6 | 43.9 | –
33 | CCCCCCc1nn2c(-c3ccc(C)cc3)nnc2s1 | > 100 | – | > 100 | –
34 | CN1CCc2c(sc3nc(Nc4ccccc4)n(N)c(=O)c23)C1 | > 100 | – | > 100 | –
35 | COc1ccc2c(c1)/C(=C(\C(Cl)=C(\Cl)N1CCCCC1)[N+](=O)[O-])N2 | > 100 | > 100 | > 100 | –
36 | Cc1cccc2c1Oc1cc(Cl)ccc1C2NC(=O)CCN1CCCCC1 (configuration not stated) | 30 | 30.2 | – | –
37 | C=C1c2nc3ccccc3n2C=C(c2ccc(Cl)cc2)N1c1ccc(OCCN2CCOCC2)cc1 | > 100 | > 100 | > 100 | –
38 | O=C(O)CC(NC(=O)C(F)(F)F)C(=O)NC1Cc2ccccc2OC1=O (configuration not stated) | > 100 | – | > 100 | –
39 | COc1cc(/C=C2\C(=O)N(c3cccc(Cl)c3)C(c3ccccc3)S2(=O)=O)cc(OC)c1OC (configuration not stated) | > 100 | 97.2 | > 100 | –
40 | CC1=C(C)C(=O)OC(C(C)(O)C2(O)CCC3(O)C4CC(Cl)C5(O)C(O)C=CC(=O)C5(C)C4CCC32C)C1 (configuration not stated) | > 100 | 46.4 | > 100 | –
